Measured values from patent US9040725B2, “Benzocycloheptane and benzoxepine derivatives” (Janssen Pharmaceutica NV, priority 2008, dated 2015).
Structures can show the parent of a compound that is named as a salt. Where two headings read alike, the source gives them in different places.

Key:
GHS1A-receptor = biological target: T1, GHS1A-receptor (Homo sapiens, UniProt Q92847); test: Ghrelin-agonism in HEK293 cells (intracellular calcium, FLIPR); format: cell-based; settings: HEK293 cells permanently transfected with GHS1A-receptor, calcium fluorescence (fluo-4 or Kit-3), EC50 in M, read-out: pEC50 (converted)
T1 construct: expressed in transfected cells; host or cells: HEK293
Experimental: One day before the experiment, HEK293 cells, permanently transfected with the gene sequence for expression of the GHS1A-receptor, were seeded in poly-D-Lysine coated 96-well plates with clear bottom, and allowed to grow to […] of confluence on the next day.
Then, cells were incubated with the calcium-sensitive intracellular fluorescent probe fluo-4 or Kit-3 for 1 h at 37° C. Fluorescence representing free intracellular calcium in the cells was measured in a FLIPR-system (excitation at 488 nm, emission>520 nm). Test compounds were added to each well at the desired concentration and the fluorescence signal was simultaneously recorded in all wells. Release of intracellular calcium triggered by activation of the receptors upon addition of the test compound was measured as the fluorescence emitted from the complex of calcium and the fluorescent probe. The drug effect on fluorescence intensity was expressed relative to the maximal fluorescence intensity measured in cells exposed to the calcium-ionophore ionomycin.

NMRI-mice = test: Acceleration of gastric emptying and small intestinal propulsion in NMRI-mice; format: in vivo; settings: Mus musculus, sc, lowest active dose, subcutaneous, 30 min before phenol red test meal
Experimental: Male NMRI-mice weighing around 25 gram were fasted for 20 h and had free access to drinking water. Test compounds were administered to the animals by subcutaneous route 30 min before they were given a test meal by oral gavage. The test meal consisted of 0.3 ml of a chocolate nutridrink solution (1.0 kcal/ml) containing phenol red marker (5 mg/ml). Fifteen min after administration of the meal, the mice were sacrificed by CO2 gas inhalation. The phenol red content remaining in the stomach (extracted from the stomach with NaOH) was determined at 557 nm in a spectrophotometer and expressed as extinction units. Small intestinal propulsion was determined as the distance traveled by the phenol red marker through the intestine and expressed as a percentage of total small intestinal length (from the pylorus to the ileo-cecal junction).
The lowest dose that was active for each parameter was noted as the lowest active dose (LAD). Table 12 discloses LAD values.

[1] = active when >60% of animals had phenol red front beyond 85% of small intestinal length, read-out: LAD (mg/kg) Small intestinal propulsion
[2] = stomach content 15 min after meal, active when >60% of animals below 0.9 extinction units, read-out: LAD (mg/kg) Gastric emptying

T1 sequence (Q92847 whole entry): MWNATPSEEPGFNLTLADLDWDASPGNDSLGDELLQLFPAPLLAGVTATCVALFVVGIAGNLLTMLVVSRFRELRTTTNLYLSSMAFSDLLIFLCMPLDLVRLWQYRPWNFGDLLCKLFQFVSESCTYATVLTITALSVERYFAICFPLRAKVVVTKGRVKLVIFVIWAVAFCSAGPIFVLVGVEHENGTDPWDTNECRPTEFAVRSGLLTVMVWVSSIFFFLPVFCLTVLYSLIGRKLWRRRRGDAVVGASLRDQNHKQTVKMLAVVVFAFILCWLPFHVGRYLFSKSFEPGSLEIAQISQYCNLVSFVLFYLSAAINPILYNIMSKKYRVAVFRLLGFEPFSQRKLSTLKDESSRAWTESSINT

Row | Structure (SMILES) | melting point [°C] | EC50 (GHS1A-receptor) [nM] | minimal effective dose (NMRI-mice; [1]) [mg/kg] | minimal effective dose (NMRI-mice; [2]) [mg/kg]
1 | CCN(CC)CCCC1(O)c2ccccc2CCCC1c1ccc(Cl)cc1 (racemic) (as salt: HCl) [Compound 46] | 189.8 |  |  | 
2 | COc1cccc([C@H]2CCCc3ccccc3[C@]2(O)CCCN(C)C)c1 (racemic) (as salt: oxalate) [Compound 14, (±)cis-5-(3-Dimethylamino-propyl)-6-(3-methoxy-phenyl)-6,7,8,9-tetrahydro-5H-benzocyclohepten-5-ol oxalate] | 108 |  |  | 
3 | CNCCCC1(O)c2ccccc2CCCC1c1ccccc1 (racemic) (as salt: oxalate) [Compound 19] | 129 |  |  | 
4 | OC1(CCCN2CCCC2)c2ccccc2CCCC1c1ccccc1 (racemic) (as salt: oxalate) [Compound 21] | 202 |  |  | 
5 | CNCCCC1(O)c2ccccc2CCCC1c1cccc(C)c1 (racemic) (as salt: oxalate) [Compound 22] | 137.4 |  |  | 
6 | Cc1cccc(C2CCCc3ccccc3C2(O)CCCN2CCOCC2)c1 (racemic) (as salt: oxalate) [Compound 25] | 204.8 |  |  | 
7 | CNCCCC1(O)c2ccccc2CCCC1c1ccc(C)cc1 (racemic) (as salt: oxalate) [Compound 27] | 235.8 |  |  | 
8 | Cc1ccc(C2CCCc3ccccc3C2(O)CCCN(C)C)cc1 (racemic) (as salt: oxalate) [Compound 29] | 161.8 |  |  | 
9 | COCCN(C)CCCC1(O)c2ccccc2CCCC1c1ccc(C)cc1 (racemic) (as salt: oxalate) [Compound 30] | 144.9 |  |  | 
10 | CCN(CC)CCCC1(O)c2ccccc2CCCC1c1ccc(C)cc1 (racemic) (as salt: oxalate) [Compound 31] | 158.6 |  |  | 
11 | Cc1ccc(C2CCCc3ccccc3C2(O)CCCN2CCN(C)CC2)cc1 (racemic) (as salt: oxalate) [Compound 33] | 219 |  |  | 
12 | COCCN(C)CCCC1(O)c2ccccc2CCCC1c1ccc(O)cc1 (racemic) (as salt: oxalate) [Compound 37] | 191.1 |  |  | 
13 | CNCCCC1(O)c2ccccc2CCCC1c1ccc(Cl)cc1 (racemic) [Compound 43] |  | 126 | > 10 | > 10
14 | CCN(CC)CCCC1(O)c2ccccc2CCCC1c1ccc(Cl)cc1 (racemic) [Compound 46] |  | 200 | 10 | 10
15 | OC1(CCCN2CCCC2)c2ccccc2CCCC1c1ccc(Cl)cc1 (racemic) [Compound 48] |  | 31.6 | > 10 | > 10
16 | CN(C)CCCC1(O)c2ccccc2CCCC1c1ccc(F)cc1 (racemic) [Compound 52] |  | 12.6 | > 10 | > 10
17 | CCN(CC)CCCC1(O)c2ccccc2CCCC1c1ccc(F)cc1 (racemic) [Compound 53] |  | 20 | > 10 | > 10
18 | COCCN(C)CCCC1(O)c2ccccc2CCCC1c1ccc(F)cc1 (racemic) [Compound 54] |  | 63.1 | > 40 | > 40
19 | CN(C)CCCC1(O)c2ccccc2CCCC1c1ccc(F)cc1F (racemic) [Compound 56] |  | 25.1 | > 10 | 10
20 | CCN(CC)CCCC1(O)c2ccccc2CCCC1c1ccc(F)cc1F (racemic) [Compound 57] |  | 31.6 | 10 | 10
21 | COCCN(C)CCCC1(O)c2ccccc2CCCC1c1ccc(F)cc1F (racemic) [Compound 58] |  | 126 | > 10 | > 10
22 | CC(=O)N1CCN(CCCC2(O)c3ccccc3CCCC2c2ccc(F)cc2F)CC1 (racemic) [Compound 60] |  | 3980 | 10 | > 10
23 | COc1ccc(C2CCCc3ccccc3C2(O)CCCN(C)C)cc1 (racemic) [Compound 66] |  | 251 | 10 | > 10
24 | CCN(CC)CCCC1(O)c2ccccc2CCCC1c1ccc(OC)cc1 (racemic) [Compound 67] |  | 158 | > 10 | > 10

Row | Structure (SMILES) | melting point [°C] | EC50 (GHS1A-receptor) [nM] | minimal effective dose (NMRI-mice; [1]) [mg/kg] | minimal effective dose (NMRI-mice; [2]) [mg/kg]
25 | COc1cc(C2CCCc3ccccc3C2(O)CCCN(C)C)ccc1Cl (racemic) [Compound 72] |  | 10 | > 10 | > 10
26 | COc1cc(C2CCCc3ccccc3C2(O)CCCN2CCC(O)C2)ccc1Cl (racemic) [Compound 73] |  | 316 | 10 | > 10
27 | CCN(CC)CCCC1(O)c2ccccc2CCCC1c1ccc(Cl)c(OC)c1 (racemic) [Compound 74] |  | 5.01 | > 40 | > 40
28 | CCN(CC)CCCC1(O)c2ccccc2CCCC1c1ccc(OC)c(OC)c1 (racemic) [Compound 78] |  | 398 | > 10 | > 10
29 | CN(C)CCCC1(O)c2ccccc2CCCC1c1cncc(Cl)c1 (racemic) [Compound 81] |  | 50.1 | > 10 | > 10
30 | CC(C)NCCCC1(O)c2ccccc2CCCC1c1cncc(Cl)c1 (racemic) [Compound 82] |  | 251 | > 10 | > 10
31 | COc1cncc(C2CCCc3ccccc3C2(O)CCCN(C)C)c1 (racemic) [Compound 83] |  | 631 | > 10 | > 10
32 | CN(C)CCCC1(O)c2ccccc2CCCC1c1ccc2c(c1)OCO2 (racemic) [Compound 88] |  | 63.1 | > 10 | > 10
33 | CCN(CC)CCCC1(O)c2ccccc2CCCC1c1ccc2c(c1)OCO2 (racemic) [Compound 89] |  | 39.8 | > 10 | > 10
34 | Cc1ccc(C2CCOc3ccccc3C2(O)CCCN(C)C)cc1 (racemic) [Compound 92] |  | 63.1 | > 10 | > 10
35 | CCN(CC)CCCC1(O)c2ccccc2OCCC1c1ccc(C)cc1 (racemic) [Compound 93] |  | 63.1 | 10 | > 10
36 | CN(C)CCCC1(O)c2ccccc2OCCC1c1ccc(Cl)cc1 (racemic) [Compound 94] |  | 31.6 | 2.5 | 10
37 | CN(C)CCCC1(O)c2ccccc2OCCC1c1ccc(F)c(F)c1 (racemic) [Compound 95] |  | 50.1 | > 10 | > 10
38 | COc1ccccc1C1CCOc2ccccc2C1(O)CCCN(C)C (racemic) [Compound 96] |  | 2000 | > 10 | > 10
39 | COc1cc(C2CCOc3ccccc3C2(O)CCCN(C)C)ccc1Cl (racemic) [Compound 97] |  | 25.1 | 2.5 | 2.5
40 | CCN(CC)CCCC1(O)c2ccccc2OCCC1c1ccc(Cl)c(OC)c1 (racemic) [Compound 98] |  | 10 | 10 | 10
41 | Cc1ccc(C2CCOc3ccccc3C2(O)CCCN(C)C)cn1 (racemic) [Compound 99] |  | 794 | > 10 | 10
42 | COc1ccc(C2CCOc3ccccc3C2(O)CCCN(C)C)cn1 (racemic) [Compound 102] |  | 7940 | > 10 | > 10
43 | CN(C)CCCC1(O)c2ccccc2CCCC1c1ccccc1 (racemic) [Compound 106] |  | 63.1 | 10 | 10
44 | COCCN(C)CCC[C@@]1(O)c2ccccc2CCC[C@@H]1c1ccc(Cl)cc1 (relative stereo) [Compound 13] |  | 251 | > 10 | 10
45 | CN(C)CCCC1(O)c2ccccc2CCCC1c1ccccc1 (single isomer, unassigned) [Compound 105] |  | 15.8 | > 10 | 10
46 | CNCCC[C@@]1(O)c2ccccc2OCC[C@@H]1c1ccc(C)cc1 [Compound 11] |  | 398 | > 10 | > 10
47 | Cc1ccc([C@H]2CCCc3ccccc3[C@]2(O)CCCN(C)C)cn1 [Compound 12] |  | 251 | > 10 | > 10
